# Test results reported in patent US20230183640A1, “METABOLIC INHIBITORS WITH EFFICACY FOR INHIBITING SULFIDE PRODUCTION IN HARSH ENVIRONMENTS” (MC (US) 3 LLC, priority 2020, published 2023).
# How the values were obtained:
# Assay in all cases: Log (Growth) efficacy in anaerobic conditions, non-SRB bacteria
# Assay type in all cases: cell-based
# [1] = tested on: Enterococcus faecalis 29212
# Protocol: (§1) Enumerations were done at each time point, which included 0 hour, 1 hour, 4 hours and 24 hours. Enumeration plates were made to determine the log growth in each dosed sample. For this process, enumeration plates were prepared by adding 180 μL fresh TSB. 20 μL was taken from each well of the challenge plates and transferred to the enumeration plates using a 20-200 μL multichannel pipette. Enumeration plates were mixed three times using the multichannel pipette and serial diluted down the plate tenfold (20 μL into 180 μL). This serial dilution process was repeated for all challenge plate rows giving a total of 6 enumeration plates. These enumeration plates were read after 24-hours and by counting the number of turbid wells in a row.
# (§2) Klebsiella pneumoniae 13883, Enterobacter aerogenes 13048, Escherichia coli 8739, and Enterococcus faecalis 29212 cultures were made by adding one loop from a freezer stock to 10 mL of fresh Phenol Red Media. These were grown anaerobically at 30° C. for 24 hours.
# (§3) Following the 24-hour incubation, each culture was diluted to 1:10 in fresh Phenol Red Media. Using these cultures, two deep well plates were prepared. Edge wells were not used due to their inherent variability and evaporation of the media. Each of the components were added at their respective concentrations for a final volume of 250 μL per well. In Table 9, the concentrations of the compound C1 used for the experiments are listed. Each experiment was done with at least three replicates for different treatments and non-treatment controls. Plates were then sealed with a titer-top and incubated at room temperature in anaerobic chamber. Enumerations were conducted at 0 hour, 1 hour, 4 hours, and 24 hours. The process for these enumerations was the same as that done for example 2; however, utilizing phenol red media instead of tryptic soy broth.
# Escherichia coli 8739 = tested on: Escherichia coli 8739
# Protocol: as §1, §2, §3
# [2] = tested on: Klebsiella pneumoniae 13883
# Protocol: as §1, §2, §3
# [3] = tested on: Enterobacter aerogenes 13048
# Protocol: as §1, §2, §3
smiles,measurement,setting,value
O=C(CN1C(=O)c2cccc3cccc(c23)C1=O)NO [C1],Log (Growth),"[1]; 0 hours, 15.625 PPM",7.000
same,Log (Growth),"[1]; 0 hours, 31.25 PPM",6.667
same,Log (Growth),"[1]; 0 hours, 62.5 PPM",7.000
same,Log (Growth),"[1]; 0 hours, 125 PPM",6.333
same,Log (Growth),"[1]; 0 hours, 250 PPM",7.000
same,Log (Growth),"[1]; 0 hours, 500 PPM",6.667
same,Log (Growth),"[1]; 1 hour, 15.625 PPM",6.667
same,Log (Growth),"[1]; 1 hour, 31.25 PPM",6.000
same,Log (Growth),"[1]; 1 hour, 62.5 PPM",6.333
same,Log (Growth),"[1]; 1 hour, 125 PPM",5.667
same,Log (Growth),"[1]; 1 hour, 250 PPM",6.333
same,Log (Growth),"[1]; 1 hour, 500 PPM",6.000
same,Log (Growth),"[1]; 4 hours, 15.625 PPM",6.667
same,Log (Growth),"[1]; 4 hours, 31.25 PPM",5.667
same,Log (Growth),"[1]; 4 hours, 62.5 PPM",4.667
same,Log (Growth),"[1]; 4 hours, 125 PPM",4.333
same,Log (Growth),"[1]; 4 hours, 250 PPM",4.333
same,Log (Growth),"[1]; 4 hours, 500 PPM",4.667
same,Log (Growth),"[1]; 24 hours, 15.625 PPM",6.333
same,Log (Growth),"[1]; 24 hours, 31.25 PPM",5.333
same,Log (Growth),"[1]; 24 hours, 62.5 PPM",5.667
same,Log (Growth),"[1]; 24 hours, 125 PPM",5.667
same,Log (Growth),"[1]; 24 hours, 250 PPM",4.333
same,Log (Growth),"[1]; 24 hours, 500 PPM",4.000
same,Log (Growth),"Escherichia coli 8739; 0 hours, 15.625 PPM",7.000
same,Log (Growth),"Escherichia coli 8739; 0 hours, 31.25 PPM",6.667
same,Log (Growth),"Escherichia coli 8739; 0 hours, 62.5 PPM",6.667
same,Log (Growth),"Escherichia coli 8739; 0 hours, 125 PPM",6.333
same,Log (Growth),"Escherichia coli 8739; 0 hours, 250 PPM",6.000
same,Log (Growth),"Escherichia coli 8739; 0 hours, 500 PPM",6.333
same,Log (Growth),"Escherichia coli 8739; 1 hour, 15.625 PPM",7.000
same,Log (Growth),"Escherichia coli 8739; 1 hour, 31.25 PPM",6.000
same,Log (Growth),"Escherichia coli 8739; 1 hour, 62.5 PPM",6.333
same,Log (Growth),"Escherichia coli 8739; 1 hour, 125 PPM",6.000
same,Log (Growth),"Escherichia coli 8739; 1 hour, 250 PPM",6.000
same,Log (Growth),"Escherichia coli 8739; 1 hour, 500 PPM",6.000
same,Log (Growth),"Escherichia coli 8739; 4 hours, 15.625 PPM",6.667
same,Log (Growth),"Escherichia coli 8739; 4 hours, 31.25 PPM",6.667
same,Log (Growth),"Escherichia coli 8739; 4 hours, 62.5 PPM",5.333
same,Log (Growth),"Escherichia coli 8739; 4 hours, 125 PPM",4.667
same,Log (Growth),"Escherichia coli 8739; 4 hours, 250 PPM",5.000
same,Log (Growth),"Escherichia coli 8739; 4 hours, 500 PPM",4.333
same,Log (Growth),"Escherichia coli 8739; 24 hours, 15.625 PPM",6.000
same,Log (Growth),"Escherichia coli 8739; 24 hours, 31.25 PPM",4.000
same,Log (Growth),"Escherichia coli 8739; 24 hours, 62.5 PPM",2.667
same,Log (Growth),"Escherichia coli 8739; 24 hours, 125 PPM",3.000
same,Log (Growth),"Escherichia coli 8739; 24 hours, 250 PPM",4.000
same,Log (Growth),"Escherichia coli 8739; 24 hours, 500 PPM",2.667
same,Log (Growth),"[2]; 0 hours, 15.625 PPM",6.667
same,Log (Growth),"[2]; 0 hours, 31.25 PPM",6.667
same,Log (Growth),"[2]; 0 hours, 62.5 PPM",6.667
same,Log (Growth),"[2]; 0 hours, 125 PPM",6.667
same,Log (Growth),"[2]; 0 hours, 250 PPM",6.000
same,Log (Growth),"[2]; 0 hours, 500 PPM",6.000
same,Log (Growth),"[2]; 1 hour, 15.625 PPM",6.667
same,Log (Growth),"[2]; 1 hour, 31.25 PPM",5.667
same,Log (Growth),"[2]; 1 hour, 62.5 PPM",5.000
same,Log (Growth),"[2]; 1 hour, 125 PPM",3.667
same,Log (Growth),"[2]; 1 hour, 250 PPM",4.333
same,Log (Growth),"[2]; 1 hour, 500 PPM",4.333
same,Log (Growth),"[2]; 4 hours, 15.625 PPM",3.333
same,Log (Growth),"[2]; 4 hours, 31.25 PPM",2.000
same,Log (Growth),"[2]; 4 hours, 62.5 PPM",2.000
same,Log (Growth),"[2]; 4 hours, 125 PPM",1.667
same,Log (Growth),"[2]; 4 hours, 250 PPM",2.333
same,Log (Growth),"[2]; 4 hours, 500 PPM",2.000
same,Log (Growth),"[2]; 24 hours, 15.625 PPM",6.333
same,Log (Growth),"[2]; 24 hours, 31.25 PPM",4.667
same,Log (Growth),"[2]; 24 hours, 62.5 PPM",5.667
same,Log (Growth),"[2]; 24 hours, 125 PPM",1.667
same,Log (Growth),"[2]; 24 hours, 250 PPM",0.000
same,Log (Growth),"[2]; 24 hours, 500 PPM",0.000
same,Log (Growth),"[3]; 0 hours, 15.625 PPM",6.333
same,Log (Growth),"[3]; 0 hours, 31.25 PPM",6.667
same,Log (Growth),"[3]; 0 hours, 62.5 PPM",6.333
same,Log (Growth),"[3]; 0 hours, 125 PPM",6.333
same,Log (Growth),"[3]; 0 hours, 250 PPM",6.667
same,Log (Growth),"[3]; 0 hours, 500 PPM",6.333
same,Log (Growth),"[3]; 1 hour, 15.625 PPM",7.000
same,Log (Growth),"[3]; 1 hour, 31.25 PPM",6.333
same,Log (Growth),"[3]; 1 hour, 62.5 PPM",7.000
same,Log (Growth),"[3]; 1 hour, 125 PPM",6.000
same,Log (Growth),"[3]; 1 hour, 250 PPM",5.667
same,Log (Growth),"[3]; 1 hour, 500 PPM",5.667
same,Log (Growth),"[3]; 4 hours, 15.625 PPM",7.333
same,Log (Growth),"[3]; 4 hours, 31.25 PPM",7.000
same,Log (Growth),"[3]; 4 hours, 62.5 PPM",4.667
same,Log (Growth),"[3]; 4 hours, 125 PPM",5.000
same,Log (Growth),"[3]; 4 hours, 250 PPM",5.333
same,Log (Growth),"[3]; 4 hours, 500 PPM",5.333
same,Log (Growth),"[3]; 24 hours, 15.625 PPM",7.667
same,Log (Growth),"[3]; 24 hours, 31.25 PPM",6.667
same,Log (Growth),"[3]; 24 hours, 62.5 PPM",6.333
same,Log (Growth),"[3]; 24 hours, 125 PPM",6.000
same,Log (Growth),"[3]; 24 hours, 250 PPM",6.333
same,Log (Growth),"[3]; 24 hours, 500 PPM",6.000
